Source: ChEMBL document CHEMBL4842340, “Development of Cagrilintide, a Long-Acting Amylin Analogue” (J Med Chem, 2021)
In brackets after ≈: the same amount, converted by molar mass. *1 amine or outer side, *2 acyl side, *3 side chain or, on linkers, in order; H or OH if unused. Where a SMILES comes first, the peptide text is derived from it. Bridges are numbered along the chain shown (N, C = ends). [ ]: non-standard residue; d: D form. The star is where a group is joined. X1 = O=C(NC(=O)[C@H](Cc1cnc[nH]1)N[*:1])[C@@H](Cc1cnc[nH]1)C(=O)[*:2]; C20 diacid = O=C(O)CCCCCCCCCCCCCCCCCCC(=O)*; γGlu = O=C(O)[C@H](CCC(=O)[*:2])N[*:1]

Legend:
[1] = Displacement of [125I]-calcitonin from rat calcitonin receptor expressed in tk-ts 13 cells measured after 120 mins by scintillation proximity assay; type: cell-based; settings: tk-ts13
[2] = Agonist activity at human AMY3R (CT+RAMP3) expressed in Hollex1 cells incubated for 3 hrs by luminescence assay; type: cell-based; settings: Hollex1, 3 h
[3] = Agonist activity at human calcitonin receptor expressed in BHK570 cells assessed as increase in intracellular cAMP concentration incubated for 3 hrs in absence of albumin by CRE luciferase reporter gene assay; type: cell-based; settings: BHK570, 3 h
[4] = Solubility of the compound in lactate at pH 3 by UPLC analysis; type: physicochemical; settings: lactate buffer
[5] = Solubility of the compound in lactate at pH 4 by UPLC analysis; type: physicochemical; settings: lactate buffer
[6] = Displacement of [125I]-calcitonin from human calcitonin receptor expressed in tk-ts 13 cells measured after 120 mins by scintillation proximity assay; type: cell-based; settings: tk-ts13
[7] = Displacement of [125I]-amylin from human AMY3R (CTR+RAMP3) expressed in BHK-13 cells measured after 120 mins by scintillation proximity assay; type: cell-based
[8] = Displacement of [125I]-amylin from rat AMY3R (CTR+RAMP3) expressed in BHK-13 cells measured after 120 mins by scintillation proximity assay; type: cell-based
Rattus norvegicus [9] = experiment: Reduction in food intake in Sprague-Dawley rat at 3 nmol/kg, sc administered as single dose measured upto 24 hrs relative to control; type: functional; design: scale not given: the % may be the effect or the level left; settings: time hrs <=24
[10] = Solubility of the compound in lactate at pH 5 by UPLC analysis; type: physicochemical; settings: lactate buffer
[11] = Agonist activity at rat calcitonin receptor expressed in BHK-13 cells assessed as increase in intracellular cAMP concentration incubated for 25 mins by CRE luciferase reporter gene assay; type: cell-based; settings: BHK-13, 25 min
Insulin (Homo sapiens) [12] = target: Insulin (Homo sapiens) (UniProt P01308); experiment: Effect on insulin (unknown origin) amyloid fibril formation assessed as peptide recovery in glycyl-glycine buffer at pH 4 measured after 45 hrs by thioflavin-T fluorescence assay relative to control; design: concentration or dose not given beside the values
[13] = Solubility of the compound in bis-tris propane at pH 6 by UPLC analysis; type: physicochemical; settings: bis-tris propane buffer
Rattus norvegicus [14] = experiment: Reduction in food intake in Sprague-Dawley rat at 3 nmol/kg, sc administered as single dose measured after 24 to 48 hrs relative to control; type: functional; design: scale not given: the % may be the effect or the level left; settings: time 24-48 hrs
[15] = Solubility of the compound in bis-tris propane at pH 8 by UPLC analysis; type: physicochemical; settings: bis-tris propane buffer
[16] = Solubility of the compound in bis-tris propane at pH 7.5 by UPLC analysis; type: physicochemical; settings: bis-tris propane buffer
[17] = Solubility of the compound in bis-tris propane at pH 6.5 by UPLC analysis; type: physicochemical; settings: bis-tris propane buffer
Rattus norvegicus [18] = organism: Rattus norvegicus; experiment: Ratio of EC50 for rat calcitonin receptor expressed in BHK-13 cells to EC50 for rat AMY3R (CT+RAMP3) expressed in tk-ts13 cells; type: cell-based
[19] = Agonist activity at rat AMY3R (CT+RAMP3) expressed in tk-ts13 cells assessed as increase in intracellular cAMP level incuabted for 25 mins by CRE luciferase reporter gene assay; type: cell-based; settings: tk-ts13, 25 min
Homo sapiens = organism: Homo sapiens; experiment: Ratio of EC50 for human calcitonin receptor expressed in BHK570 cells to EC50 for human AMY3R (CT+RAMP3) expressed in Hollex1 cells; type: cell-based
Insulin (Homo sapiens) [20] = target: Insulin (Homo sapiens) (UniProt P01308); experiment: Effect on insulin (unknown origin) amyloid fibril formation assessed as lag time in glycyl-glycine buffer at pH 4 measured after 45 hrs by thioflavin-T fluorescence assay
[21] = Solubility of the compound in bis-tris propane at pH 7 by UPLC analysis; type: physicochemical; settings: bis-tris propane buffer
Rattus norvegicus [22] = organism: Rattus norvegicus; experiment: Ratio of IC50 for displacement of [125I]-calcitonin from rat calcitonin receptor expressed in tk-ts 13 cells to IC50 for displacement of [125I]-amylin from rat AMY3R (CTR+RAMP3) expressed in BHK-13 cells; type: cell-based

Chain of Insulin (Homo sapiens) (P01308 whole entry): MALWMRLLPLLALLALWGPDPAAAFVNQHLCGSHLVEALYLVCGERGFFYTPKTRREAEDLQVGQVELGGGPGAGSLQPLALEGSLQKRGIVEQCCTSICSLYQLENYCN

Row | Structure (SMILES) | IC50 [1] [nM] | EC50 [2] [nM] | EC50 [3] [nM] | solubility [4] [µM] | solubility [5] [µM] | IC50 [6] [nM] | IC50 [7] [nM] | IC50 [8] [nM] | Activity (Rattus norvegicus [9]) [%] | solubility [10] [µM] | EC50 [11] [nM] | Activity (Insulin (Homo sapiens) [12]) [%] | solubility [13] [µM] | Activity (Rattus norvegicus [14]) [%] | solubility [15] [µM] | solubility [16] [µM] | solubility [17] [µM] | Ratio EC50 (Rattus norvegicus [18]) | Ratio EC50 (Homo sapiens) | TIME (Insulin (Homo sapiens) [20]) [h] | further results
1 | CC[C@H](C)[C@H](NC(=O)[C@H](CCC(=O)O)NC(=O)CNC(=O)[C@H](Cc1ccccc1)NC(=O)[C@H](CC(N)=O)NC(=O)[C@H](CC(N)=O)NC(=O)[C@H](CO)NC(=O)[C@H](CO)NC(=O)[C@H](CCCNC(=N)N)NC(=O)[C@H](Cc1cnc[nH]1)NC(=O)[C@H](CC(C)C)NC(=O)[C@H](Cc1ccccc1)NC(=O)[C@H](CCC(=O)O)NC(=O)[C@H](C)NC(=O)[C@H](CC(C)C)NC(=O)[C@H](CCCNC(=N)N)NC(=O)[C@H](CCC(N)=O)NC(=O)[C@@H](NC(=O)[C@H](C)NC(=O)[C@@H]1CSSC[C@H](NC(=O)[C@H](Cc2cnc[nH]2)NC(=O)CC[C@H](NC(=O)CCCCCCCCCCCCCCCCCCC(=O)O)C(=O)O)C(=O)N[C@@H](CC(N)=O)C(=O)N[C@@H]([C@@H](C)O)C(=O)N[C@@H](C)C(=O)N[C@@H]([C@@H](C)O)C(=O)N1)[C@@H](C)O)C(=O)N[C@@H](CC(C)C)C(=O)N[C@@H](CO)C(=O)N[C@@H](CCCNC(=N)N)C(=O)N[C@H](C(=O)N[C@@H](CC(N)=O)C(=O)N[C@H](C(=O)NCC(=O)N[C@@H](CO)C(=O)N[C@@H](CC(N)=O)C(=O)N[C@H](C(=O)N[C@@H](Cc1ccc(O)cc1)C(N)=O)[C@@H](C)O)C(C)C)[C@@H](C)O | 1.37 | 0.077 | 0.129 | 200 (≈ 913 µg/mL) | 200 (≈ 913 µg/mL) | 1.54 | 0.818 | 0.445 |  |  |  |  |  |  |  |  |  |  |  |  | 
2 | CC[C@H](C)[C@H](NC(=O)[C@@H]1CCCN1C(=O)CNC(=O)[C@H](Cc1ccccc1)NC(=O)[C@H](CC(N)=O)NC(=O)[C@H](CC(N)=O)NC(=O)[C@H](CO)NC(=O)[C@H](CO)NC(=O)[C@H](Cc1cnc[nH]1)NC(=O)[C@H](Cc1cnc[nH]1)NC(=O)[C@H](CC(C)C)NC(=O)[C@H](Cc1ccccc1)NC(=O)[C@H](CCC(=O)O)NC(=O)[C@H](C)NC(=O)[C@H](CC(C)C)NC(=O)[C@H](CCCNC(=N)N)NC(=O)[C@H](CCC(N)=O)NC(=O)[C@@H](NC(=O)[C@H](C)NC(=O)[C@@H]1CSSC[C@H](NC(=O)[C@H](CCCNC(=N)N)NC(=O)CC[C@H](NC(=O)CC[C@H](NC(=O)CCCCCCCCCCCCCCCCCCC(=O)O)C(=O)O)C(=O)O)C(=O)N[C@@H](CC(N)=O)C(=O)N[C@@H]([C@@H](C)O)C(=O)N[C@@H](C)C(=O)N[C@@H]([C@@H](C)O)C(=O)N1)[C@@H](C)O)C(=O)N[C@@H](CC(C)C)C(=O)N1CCC[C@H]1C(=O)N1CCC[C@H]1C(=O)N[C@H](C(=O)N[C@@H](CC(N)=O)C(=O)N[C@H](C(=O)NCC(=O)N[C@@H](CO)C(=O)N[C@@H](CC(N)=O)C(=O)N[C@H](C(=O)N[C@@H](Cc1ccc(O)cc1)C(N)=O)[C@@H](C)O)C(C)C)[C@@H](C)O ({C20 diacid-γGlu-γGlu}-RCNTATCATQRLAEFLHHSSNNFGPILPPTNVGSNTY-NH2; disulfide 2-7) |  | 0.129 | 0.205 | 200 (≈ 923 µg/mL) | 200 (≈ 923 µg/mL) |  |  |  | 46 | 200 (≈ 923 µg/mL) | 1.34 | 0 | 200 (≈ 923 µg/mL) | 39 | 200 (≈ 923 µg/mL) | 200 (≈ 923 µg/mL) | 200 (≈ 923 µg/mL) | 5 | 2 | 2 | EC50 [19]: 0.277 nM; solubility [21]: 200 µM (≈ 923 µg/mL)
3 | CC[C@H](C)[C@H](NC(=O)[C@@H]1CCCN1C(=O)CNC(=O)[C@H](Cc1ccccc1)NC(=O)[C@H](CC(N)=O)NC(=O)[C@H](CC(N)=O)NC(=O)[C@H](CO)NC(=O)[C@H](CO)NC(=O)[C@H](Cc1c[nH]cn1)NC(=O)[C@H](CCCNC(=N)N)NC(=O)[C@H](CC(C)C)NC(=O)[C@H](Cc1ccccc1)NC(=O)[C@H](CCC(=O)O)NC(=O)[C@H](C)NC(=O)[C@H](CC(C)C)NC(=O)[C@H](CCCNC(=N)N)NC(=O)[C@H](CCC(N)=O)NC(=O)[C@@H](NC(=O)[C@H](C)NC(=O)[C@@H]1CSSC[C@H](NC(=O)[C@H](CCCCN)NC(=O)CC[C@H](NC(=O)CCCCCCCCCCCCCCCCCCC(=O)O)C(=O)O)C(=O)N[C@@H](CC(N)=O)C(=O)N[C@@H]([C@@H](C)O)C(=O)N[C@@H](C)C(=O)N[C@@H]([C@@H](C)O)C(=O)N1)[C@@H](C)O)C(=O)N[C@@H](CC(C)C)C(=O)N1CCC[C@H]1C(=O)N1CCC[C@H]1C(=O)N[C@H](C(=O)N[C@@H](CC(N)=O)C(=O)N[C@H](C(=O)NCC(=O)N[C@@H](CO)C(=O)N[C@@H](CC(N)=O)C(=O)N[C@H](C(=O)N[C@@H](Cc1ccc(O)cc1)C(N)=O)[C@@H](C)O)C(C)C)[C@@H](C)O ({C20 diacid-γGlu}-KCNTATCATQRLAEFLRHSSNNFGPILPPTNVGSNTY-NH2; disulfide 2-7) | 2.06 | 0.1 | 0.447 | 200 (≈ 895 µg/mL) | 200 (≈ 895 µg/mL) | 0.811 | 0.35 | 0.532 | 30 |  |  | 85 |  | 8 |  |  |  | 0.5 | 4 | 45 | Ratio IC50 (Rattus norvegicus [22]): 4
4 | CC[C@H](C)[C@H](NC(=O)[C@@H]1CCCN1C(=O)CNC(=O)[C@H](Cc1ccccc1)NC(=O)[C@H](CC(N)=O)NC(=O)[C@H](CC(N)=O)NC(=O)[C@H](CO)NC(=O)[C@H](CO)NC(=O)[C@H](Cc1cnc[nH]1)NC(=O)[C@H](Cc1cnc[nH]1)NC(=O)[C@H](CC(C)C)NC(=O)[C@H](Cc1ccccc1)NC(=O)[C@H](CCC(=O)O)NC(=O)[C@H](C)NC(=O)[C@H](CC(C)C)NC(=O)[C@H](CCCNC(=N)N)NC(=O)[C@H](CCC(N)=O)NC(=O)[C@@H](NC(=O)[C@H](C)NC(=O)[C@@H]1CSSC[C@H](NC(=O)[C@H](Cc2cnc[nH]2)NC(=O)[C@H](Cc2cnc[nH]2)C(=O)NC(=O)[C@H](Cc2cnc[nH]2)NC(=O)CC[C@H](NC(=O)CCCCCCCCCCCCCCCCCCC(=O)O)C(=O)O)C(=O)N[C@@H](CCCNC(=N)N)C(=O)N[C@@H]([C@@H](C)O)C(=O)N[C@@H](C)C(=O)N[C@@H]([C@@H](C)O)C(=O)N1)[C@@H](C)O)C(=O)N[C@@H](CC(C)C)C(=O)N1CCC[C@H]1C(=O)N1CCC[C@H]1C(=O)N[C@H](C(=O)N[C@@H](CC(N)=O)C(=O)N[C@H](C(=O)NCC(=O)N[C@@H](CO)C(=O)N[C@@H](CC(N)=O)C(=O)N[C@H](C(=O)N[C@@H](Cc1ccc(O)cc1)C(N)=O)[C@@H](C)O)C(C)C)[C@@H](C)O ({C20 diacid-γGlu}-[X1]HCRTATCATQRLAEFLHHSSNNFGPILPPTNVGSNTY-NH2; disulfide 3-8) |  | 0.096 | 0.157 | 200 (≈ 962 µg/mL) | 200 (≈ 962 µg/mL) |  |  |  | 26 | 200 (≈ 962 µg/mL) | 1.29 | 14 | 200 (≈ 962 µg/mL) | 5 | 3 (≈ 14.4 µg/mL) | 1 (≈ 4.81 µg/mL) | 57 (≈ 274 µg/mL) | 5 | 2 | 3 | EC50 [19]: 0.261 nM; solubility [21]: 2 µM (≈ 9.62 µg/mL)
